≈ marks a conversion by molar mass, not a printed value. Where “and” joins values, the source holds several entries; their conditions need not be identical. Equal entries are not always repeated.
Tests used:
[1] = Pharmacokinetics of 4b and 6-I in mice (blood concentration-time); assay type: in vivo, C57BL/6j mice; parameters: Tmax: unit not given here; settings: IP, 1 mg/Kg in male C57BL/6 mice, Mean
[2] = system: GR activation in 293/PRLR/GRE-Luc cells (HEK293/9xUAS-Luc2P/pBind-GR/PRLR-HA high cells); assay: GR co-activator luciferase reporter cell based assay in 293/PRLR/GRE-Luc cells; parameters: species or system human
Outline: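 HEK293 cells stably expressing PRLR, a Gal4–GR LBD chimera and a 9×Gal4UAS-Luc2P reporter were seeded at 20,000 per well and treated with free steroid or anti-PRLR steroid ADC. Luciferase (One-Glo) was read as RLU, and EC50 was fitted by four-parameter logistic over 10 points. Minimal activation means under 10% of free-payload maximum.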

[3] = system: LPS-induced cytokine release (TNF-α); assay: Mouse model of LPS induced cytokine release (TNF-α in plasma); assay type: in vivo, C57BL/6j mice; settings: for TNF-a: plasma 2 hr post LPS challenge, individual mice
[4] = Solubility in water and DMSO/water
human liver cathepsin B = human liver cathepsin B (Homo sapiens (Human), UniProt P07858); assay: Linker-payload cleavage in Cathepsin B assay; assay type: biochemical; settings: Mean
Procedure: The linker-payloads were tested in a Cathepsin B assay. After 4 hr incubation in Cathepsin B (CapB) with and without CapB inhibitor ([…]), both linker-payloads and free payload were evaluated using LC-MS/MS.
The CapB assay procedure follows: Linker-payload stock solution (10 mM in DMSO) was spiked into incubation buffer (100 mM NaOAc, 10 mM dithiothreitol, pH5) to obtain a 50 μM substrate solution. 4 μL of 0.47 μg/μL human liver cathepsin B (Athens Research & Technology, Athens, GA) in 50 mM NaOAc, 1 mM EDTA, pH 5 was added into 196 μL of 50 μM substrate solution. The reaction mixture was incubated at 37° C. for 4 hr. Then 5 μL of acetic acid and 150 μL of acetonitrile (containing osalmid as internal standard) were added to 50/Th of reaction mixture aliquots. After vortexing, the quenched samples were frozen in a −70° C. deep freezer, followed by thawing and centrifugation at 14,000 rpm.
The CapB assay experiment included the following procedure. • 1. Preheat assay buffer: 0.1 M NaOAc/0.01 M DTT (pH 5.0) • 2. Spiking solutions for test compounds: 25 μM Spiking solutions for test compounds: Add […], of 5 mM stock solution into 398 μL of 0.1 M NaOAc/0.01 M DTT buffer (pH 5.0). • 3. Prepare 0.47m/μL Cathepsin B in 50 mM NaOAc/1 mM EDTA (pH 5.0). Put on ice. • 4. Without CA074 samples: Add […], of 0.47m/μL Cathepsin B into 196 μL of 25 μM Spiking solutions (from step 2), incubate the tubes at 37° C. • 5. With CA074 samples: Add 4 μL of 0.47m/μL Cathepsin B with 4 μL of 10 mM Inhibitor (CA074) into 196 μL of 25 μM Spiking solutions (from step 2), incubate the tubes at 37° C. • 6. After 4 hours, Aliquots of 5 μL (with CA074 and without CA074) were taken for enzyme activity test (step 15-17). Meanwhile, Aliquots of 50 μL were taken at the time point (4 h), adding 5 μL of acetic acid, and then add 150 μL of ACN (IS) to stop the reaction. • 7. After quenching, shake the plate and centrifuge them at 14000 rpm. • 8. Transfer 50 μL of the supernatant from each well into a 96-well sample plate containing 50 μL of ultra pure water (Millipore, ZMQS50F01) for LC/MS analysis.
The CapB assay experiment included the reference compounds and the following procedure. • 9. Preheat assay buffer: 100 mM Na/K phosphate, pH6.0, with 1.33 mM EDTA and 2 mM DTT. • 10. Prepare 0.024m/μL Cathepsin B: Add […] of 0.47 μg/μL Cathepsin B stock into 19 μL of assay buffer (from step 11). • 11. Add 2 μL of 0.024m/μL Cathepsin B (from step 12) to a opaque 96-well plate. • 12. Add 96 μL of assay buffer to each sample. • 13. Add 2 μL of the 10 mM substrate Z—RR-MNA(200 μM final concentration). • For negative control (with inhibitor), add 2 μL of 10 mM Inhibitor (CA074). • 14. Immediately read the samples in a kinetic mode at excitation of 340 nm/emission of 425 nm (Read the plate every 30 Second for 3 min).
Stability of Cathepsin B in incubation samples: • 15. Take Take 5 μL of incubation samples into 93 μL of assay buffer (from step 11), and then add 2 μL of 10 mM substrate (Z—RR-MNA). • 16. Incubate the samples at 37° C. for 2 min. • 17. Read the samples at excitation of 340 nm/emission of 425 nm.

[5] = with CA074 (Cathepsin B inhibitor), 4 hr incubation
[6] = without CA074, 4 hr incubation with Cathepsin B

Compound: CCCC1O[C@@H]2C[C@H]3[C@@H]4C[C@H](F)C5=CC(=O)C=C[C@]5(C)[C@@]4(F)[C@@H](O)C[C@]3(C)[C@]2(C(=O)COc2ccc(N)cc2)O1 (stereo partly drawn) [Compound 6-I, (1S,2S,4R,8S,9S,11S,12R,13S,19S)-8-[2-(4-Aminophenoxy)acetyl]-12,19-difluoro-11-hydroxy-9,13-dimethyl-6-propyl-5,7-dioxapentacyclo[10.8.0.0^2,90.0^4,80.0^13,118]icosa-14,17-dien-16-one]
- Tmax [1]: 0.250
- AUC(0-inf) ([1]; mouse, in vivo, read-out: AUCINF): 113 ng·h/mL
- AUC(0-t) ([1]; mouse, in vivo, read-out: AUClast): 107 ng·h/mL
- Cmax ([1]; mouse, in vivo, read-out: Cmax): 44.8 ng/mL
- half-life ([1]; mouse, in vivo, read-out: Terminal t1/2 (converted)): 1.91 h
- EC50 ([2]; Homo sapiens, HEK293, read-out: HEK293/9xUAS-Luc2P/pBind-GR/PRLR-HA high cells EC50): < 10 nM
- HEK293/9xUAS-Luc2P/pBind-GR/PRLR-HA high cells activation relative to Budesonide ([2]; fold activation vs Budesonide): Full
- Inhibition of TNF-α production ([3]; 5 mpk ip before LPS challenge, plasma at 2 hr time point): time dependent inhibition
- TNF-a ([3]; 5MPK ip (−2 h) prior to LPS): 110.6 pg/mL and 30.8 pg/mL and 240.8 pg/mL
- TNF-a ([3]; 5MPK ip (−24 h) prior to LPS): 23.1 pg/mL and 997.3 pg/mL and 55.4 pg/mL
- TNF-a ([3]; 5MPK ip (−48 h) prior to LPS): 1280.1 pg/mL and 1149.4 pg/mL and 750.0 pg/mL

Compound: CCC[C@@H]1O[C@@H]2C[C@H]3[C@@H]4CCC5=CC(=O)C=C[C@]5(C)[C@H]4[C@@H](O)C[C@]3(C)[C@]2(C(=O)COc2ccc(NC(=O)[C@H](C)NC(=O)[C@@H](NC(=O)[C@@H](CCCCNC(=O)COC3CCCCCc4c3nnn4CC3OC4OC5C(CO)OC(OC6C(CO)OC(OC7C(CO)OC(OC8C(CO)OC(OC9C(CO)OC(OC3C(O)C4O)C(O)C9O)C(O)C8O)C(O)C7O)C(O)C6O)C(O)C5O)NC(=O)CCOCCOCCOCCOCCNC(=O)CCC(=O)N3Cc4ccccc4C#Cc4ccccc43)C(C)C)cc2)O1 (stereo partly shown) [LP16]
- solubility ([4]; 10% DMSO in water, aqueous with cosolvent or surfactant or cyclodextrin): 100 µg/mL (≈ 39.7 µM)

Compound: CCCC1O[C@@H]2C[C@H]3[C@@H]4C[C@H](F)C5=CC(=O)C=C[C@]5(C)[C@@]4(F)[C@@H](O)C[C@]3(C)[C@]2(C(=O)CNC(=O)OCc2ccc(NC(=O)[C@H](CCCNC(N)=O)NC(=O)[C@@H](NC(=O)[C@@H](N)CCCCNC(=O)COC3C#CCCCCC3)C(C)C)cc2)O1 (stereo partly shown) [LP101]
- Conversion rate (%) (human liver cathepsin B; [5]): <1.00%
- Conversion rate (%) (human liver cathepsin B; [6]): 48.20%

Compound: CCCC1O[C@@H]2C[C@H]3[C@@H]4C[C@H](F)C5=CC(=O)C=C[C@]5(C)[C@@]4(F)[C@@H](O)C[C@]3(C)[C@]2(C(=O)COc2ccc(NC(=O)OCc3ccc(NC(=O)[C@H](CCCNC(N)=O)NC(=O)[C@@H](NC(=O)[C@@H](N)CCCCNC(=O)COC4C#CCCCCC4)C(C)C)cc3)cc2)O1 (stereo partly shown) [LP103]
- Conversion rate (%) (human liver cathepsin B; [5]): <1.00%
- Conversion rate (%) (human liver cathepsin B; [6]): 29.0%

Compound: CCC[C@@H]1O[C@@H]2C[C@H]3[C@@H]4CCC5=CC(=O)C=C[C@]5(C)[C@H]4[C@@H](O)C[C@]3(C)[C@]2(C(=O)COc2ccc(NC(=O)[C@H](C)NC(=O)[C@@H](NC(=O)CCOCCOCCOCCOCCNC(=O)CCC(=O)N3Cc4ccccc4C#Cc4ccccc43)C(C)C)cc2)O1 [LP7]
- solubility ([4]; 20% DMSO in water, aqueous with cosolvent or surfactant or cyclodextrin): 60 µg/mL (≈ 48.9 µM)
- solubility ([4]; 30% DMSO in water, aqueous with cosolvent or surfactant or cyclodextrin): 70 µg/mL (≈ 57.1 µM)
- solubility ([4]; water): < 100 µg/mL

— patent US11760775B2, “Steroids and protein-conjugates thereof” (Regeneron Pharmaceuticals, Inc., priority 2016, dated 2023)
